Assay results: US20060293264A1, “STAT3 decoy oligonucleotides and uses therefor” (priority 2004, published 2006)

What was measured:
STAT1 = target: T1, STAT1 (Homo sapiens, UniProt P42224); experiment: EMSA of STAT1 binding to the STAT3 decoy, PCI-15B nuclear extracts; details: supershift
T1 construct: Nuclear protein extracts of PCI-15B cells, prepared according to standard methods, were used for the EMSA; endogenous in cells; host or cells: PCI-15B cells (nuclear extract)
T1 sequence (P42224 2-750 limits assumed): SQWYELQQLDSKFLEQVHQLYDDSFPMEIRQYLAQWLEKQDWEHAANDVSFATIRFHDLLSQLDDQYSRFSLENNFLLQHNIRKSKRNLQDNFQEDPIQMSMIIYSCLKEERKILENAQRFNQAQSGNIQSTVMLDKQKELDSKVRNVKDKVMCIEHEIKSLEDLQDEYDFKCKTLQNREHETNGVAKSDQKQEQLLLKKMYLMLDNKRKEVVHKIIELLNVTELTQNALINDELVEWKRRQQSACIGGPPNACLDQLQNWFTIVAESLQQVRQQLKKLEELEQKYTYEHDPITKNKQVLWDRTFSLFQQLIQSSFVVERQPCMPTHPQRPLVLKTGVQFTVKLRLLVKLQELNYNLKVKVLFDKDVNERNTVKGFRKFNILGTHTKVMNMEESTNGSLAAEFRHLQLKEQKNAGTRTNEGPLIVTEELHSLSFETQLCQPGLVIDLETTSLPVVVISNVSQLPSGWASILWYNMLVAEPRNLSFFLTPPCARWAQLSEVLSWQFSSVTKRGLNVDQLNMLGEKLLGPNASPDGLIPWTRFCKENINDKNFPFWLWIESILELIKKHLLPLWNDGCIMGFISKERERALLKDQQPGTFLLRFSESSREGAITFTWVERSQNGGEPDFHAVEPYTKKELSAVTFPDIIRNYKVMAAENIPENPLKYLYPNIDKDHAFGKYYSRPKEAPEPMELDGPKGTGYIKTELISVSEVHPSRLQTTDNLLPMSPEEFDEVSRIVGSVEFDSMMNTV
Method: FIG. 10 depicts binding of STAT 1 to the STAT3 decoy in an electrophoretic mobility shift assay (EMSA). Nuclear protein extracts of PCI-15B cells, prepared according to standard methods, were used for the EMSA. The specificity of STAT1 or STAT3 binding to the STAT3 decoy was determined by supershifting with STAT1- or STAT3-specific antibodies, or both. The experiment has been repeated more than 3 times.

[1] = system: SCCHN xenografts (1483 cells); experiment: In vivo apoptosis determination by TUNEL in harvested xenografts; design: species or system athymic nude mice; details: xenografts harvested after 25 treatments; p=0.00038
Method: In vivo apoptosis determinations. Detection and quantitation of apoptosis was performed by the TUNEL reaction, using the In Situ Cell Death Detection Kit, POD (Roche Diagnostics GmbH, Roche Applied Science, Sandhofer Strasse 116, D-68305 Mannheim, Germany). Cryostat sections were fixed in 4% paraformaldehyde in PBS for 30 min. After washing with PBS for 30 min, the sections were incubated in permeabilization solution (0.1% Triton X-100, 0.1% sodium citrate) for 2 min on ice. The sections were washed twice with PBS before the samples were incubated for 60 min at 37° C. with TUNEL reaction mixture to label DNA strand breaks with Fluorescein-dUTP. After washing three times with PBS, the samples were incubated with Converter-POD for 30 min at 37° C., washed again with PBS, and finally exposed to 0.025% 3,3′-diaminobenzidine (DAB)/0.01% H2O2 in Tris-HCl buffer (pH 7.4) for 10 min. The number of apoptotic cells per high-power field (HPF) was counted. For each treatment, five samples were evaluated, and 5-10 fields of view were quantified on each section.
In vivo tumor xenograft studies. Female athymic nude mice nu/nu (4-6 weeks old; 20±2 g; Harlan-Sprague-Dawley) were implanted with 1×10^6 1483 cells into the right and left flank with a 26-gauge needle/1 ml tuberculin syringe, resulting in two tumors per mouse. […]

GAS-responsive element = experiment: pGAS-Luc reporter gene assay in UM-22B SCCHN cells; type: cell-based; details: UM-22B pGAS-Luc, 2 μg transfected, 24 hrs, IFN-γ stimulation
Method: FIG. 9 depicts the inhibition of reporter gene expression from GAS-responsive element in SCCHN cells. An SCCHN cell line, UM-22B, was used to generate a stable cell line expressing a pGAS-Luc reporter gene (pGAS-Luc plasmid carrying 4 repeats of GAS sequence: [NT] ID NO: 31), was obtained from Stratagene, Catalog number: 219091-51). The cells were transfected with 2 μg of the STAT3 decoy or the control mutant decoy. At 24 hrs after transfection, luciferase activity was measured and normalized to the total amount of protein.

With “STAT3 decoy (sense CATTTCCCGTAAATC; antisense GATTTACGGGAAATG; phosphorothioate modified, further chemistry not given here; listed as Homo sapiens)” the “binding to STAT1” value (STAT1) was “able to bind”, the “increase in apoptosis (TUNEL) compared with mutant control decoy” value [1] was 3.25 fold and the “reporter gene expression from a GAS-responsive element (STAT1 reporter activity)” value (GAS-responsive element) was “inhibit”.
